Values of other authors, collected in patent publication US9700504B2, “Composition and method for an intradermal hair growth solution” (priority 2012, dated 2017).

System: human hair follicles
Conditions: ex vivo human hair follicles and cultured dermal papilla cells

L-alanyl-L-histidyl-L-lysine-Cu^2+ [AHK-Cu]
effect on human hair growth: promotes the growth of human hair follicles
